ChEMBL document CHEMBL1275440, “In vitro activity of telavancin against resistant gram-positive bacteria” (2008)
In brackets after ≈: the same amount, converted by molar mass.

Legend:
Assay type in all cases: functional
Staphylococcus aureus [1] = experiment: Antibacterial activity against methicillin resistant Staphylococcus aureus MED 1805 bloodstream isolate assessed as bacterial count at 1 ug/ml after 4 hrs by time-kill assay
Enterococcus faecalis [2] = experiment: Antibacterial activity against Enterococcus faecalis ATCC 51575 assessed as bacterial count at 8 ug/ml after 8 hrs by time-kill assay
Streptococcus pneumoniae [3] = experiment: Antibacterial activity against multidrug resistant Streptococcus pneumoniae MED 1090 assessed as bacterial count at 8 ug/ml after 4 hrs by time-kill assay
Streptococcus agalactiae [4] = experiment: Antibacterial activity against Streptococcus agalactiae MED 2038 assessed as bacterial count at 8 ug/ml after 4 hrs by time-kill assay
[5] = system: Staphylococcus epidermidis; experiment: Antibacterial activity against methicillin resistant Staphylococcus epidermidis ATCC 35984 assessed as bacterial count at 16 ug/ml after 4 hrs by time-kill assay
Enterococcus faecalis [6] = experiment: Antibacterial activity against Enterococcus faecalis ATCC 51575 assessed as bacterial count at 2 ug/ml after 4 hrs by time-kill assay
Streptococcus pyogenes [7] = experiment: Antibacterial activity against Streptococcus pyogenes MED 2040 assessed as bacterial count at 8 ug/ml after 4 hrs by time-kill assay
Streptococcus pyogenes [8] = experiment: Antibacterial activity against Streptococcus pyogenes MED 2040 assessed as bacterial count at 2 ug/ml after 24 hrs by time-kill assay
[9] = system: Staphylococcus haemolyticus; experiment: Antibacterial activity against methicillin resistant coagulase-negative Staphylococcus haemolyticus clinical isolate by broth microdilution method
Streptococcus pyogenes [10] = experiment: Antibacterial activity against Streptococcus pyogenes MED 2040 assessed as bacterial count at 0.5 ug/ml after 4 hrs by time-kill assay
Staphylococcus aureus [11] = experiment: Antibacterial activity against methicillin resistant Staphylococcus aureus MED 2028 osteomyelitis isolate assessed as bacterial count at 1 ug/ml after 8 hrs by time-kill assay
Staphylococcus aureus [12] = experiment: Antibacterial activity against methicillin resistant Staphylococcus aureus clinical isolate by broth microdilution method
Streptococcus pneumoniae [13] = experiment: Antibacterial activity against multidrug resistant Streptococcus pneumoniae MED 1090 assessed as bacterial count at 0.03 ug/ml after 8 hrs by time-kill assay
Staphylococcus aureus [14] = experiment: Antibacterial activity against methicillin resistant Staphylococcus aureus MED 1805 bloodstream isolate assessed as bacterial count at 4 ug/ml after 24 hrs by time-kill assay
[15] = system: Staphylococcus epidermidis; experiment: Antibacterial activity against methicillin resistant Staphylococcus epidermidis ATCC 35984 assessed as bacterial count at 4 ug/ml after 8 hrs by time-kill assay
Streptococcus pneumoniae [16] = experiment: Antibacterial activity against multidrug resistant Streptococcus pneumoniae MED 1090 assessed as bacterial count at 2 ug/ml after 24 hrs by time-kill assay
Staphylococcus capitis = experiment: Antibacterial activity against methicillin resistant coagulase-negative Staphylococcus capitis clinical isolate by broth microdilution method
[17] = system: Staphylococcus epidermidis; experiment: Antibacterial activity against methicillin resistant Staphylococcus epidermidis ATCC 35984 assessed as bacterial count at 2 ug/ml after 2 hrs by time-kill assay
Streptococcus agalactiae [18] = experiment: Antibacterial activity against Streptococcus agalactiae MED 2038 assessed as bacterial count at […] after 4 hrs by time-kill assay
Streptococcus pyogenes [19] = experiment: Antibacterial activity against Streptococcus pyogenes MED 2040 assessed as bacterial count at 8 ug/ml after 8 hrs by time-kill assay
Streptococcus pneumoniae [20] = experiment: Antibacterial activity against multidrug resistant Streptococcus pneumoniae MED 1090 by broth microdilution method
Staphylococcus aureus [21] = experiment: Antibacterial activity against methicillin resistant Staphylococcus aureus MED 2028 osteomyelitis isolate assessed as bacterial count at 1 ug/ml after 24 hrs by time-kill assay

In the case of CCCCCCCCCCNCCN[C@@]1(C)C[C@H](O[C@H]2[C@H](Oc3c4cc5cc3Oc3ccc(cc3Cl)[C@@H](O)[C@@H](NC(=O)[C@@H](CC(C)C)NC)C(=O)N[C@@H](CC(N)=O)C(=O)N[C@H]5C(=O)N[C@H]3C(=O)N[C@H](C(=O)N[C@H](C(=O)O)c5cc(O)c(CNCP(=O)(O)O)c(O)c5-c5cc3ccc5O)[C@H](O)c3ccc(c(Cl)c3)O4)O[C@H](CO)[C@@H](O)[C@@H]2O)O[C@@H](C)[C@H]1O [TELAVANCIN], the log10CFU/ml (Staphylococcus aureus [1]) is reported as 1.8, the log10CFU/ml (Enterococcus faecalis [2]) is reported as 0.5 and the log10CFU/ml (Streptococcus pneumoniae [3]) is reported as 1.7. The log10CFU/ml (Streptococcus agalactiae [4]) was 0.9, the log10CFU/ml [5] was 3.2 and the log10CFU/ml (Enterococcus faecalis [6]) was 0.5. It also gave a log10CFU/ml (Streptococcus pyogenes [7]) of 1.2, a log10CFU/ml (Streptococcus pyogenes [8]) of 3.1 and an MIC50 [9] of 0.5 µg/mL (≈ 0.285 µM). It also gave an MIC90 [9] of 1 µg/mL (≈ 0.57 µM), a log10CFU/ml (Streptococcus pyogenes [10]) of 1.6 and a log10CFU/ml (Staphylococcus aureus [11]) of 3.4. The Activity (Staphylococcus aureus [12]) was 100%, the MIC50 (Staphylococcus aureus [12]; Staphylococcus aureus) was 0.25 µg/mL (≈ 0.142 µM) and the MIC90 (Staphylococcus aureus [12]; Staphylococcus aureus) was 0.5 µg/mL (≈ 0.285 µM). It also gave a log10CFU/ml (Streptococcus pneumoniae [13]) of 3.4, a log10CFU/ml (Staphylococcus aureus [14]) of 3.3 and a log10CFU/ml [15] of 3.2. It also gave a log10CFU/ml (Streptococcus pneumoniae [16]) of 3.4, an MIC50 (Staphylococcus capitis) of 0.5 µg/mL (≈ 0.285 µM) and an MIC90 (Staphylococcus capitis) of 1 µg/mL (≈ 0.57 µM). The log10CFU/ml [17] was 0.2, the log10CFU/ml (Streptococcus agalactiae [18]) was 0.8 and the log10CFU/ml (Streptococcus pyogenes [19]) was 2.7. The MIC (Streptococcus pneumoniae [20]) was 0.015 µg/mL (≈ 0.00854 µM) and the log10CFU/ml (Staphylococcus aureus [21]) was 2.1.
